According to ChEMBL document CHEMBL1155127, “Paw paw and cancer: annonaceous acetogenins from discovery to commercial products” (J Nat Prod, 2008):

Tests used:
[1] = system: P388; assay: Antitumor activity against mouse P388 cells in at 1.4 mg/kg by in vivo 3PS assay; type: functional
[2] = system: KB; assay: Antitumor activity against human KB cell xenografted mouse assessed as inhibition of tumor growth at 900 ug/kg administered every 2 days for 6 days; type: functional
[3] = Antitumor activity against multidrug resistant human KBv200 cell xenografted mouse assessed as inhibition of tumor growth at 900 ug/kg administered every 2 days for 6 days; type: functional
[4] = system: L1210; assay: Antitumor activity against mouse L1210 cell xenografted mouse at 400 ug/kg; type: functional
[5] = system: A2780; assay: Antitumor activity against human A2780 cell xenografted athymic mouse at 125 ug/kg/day; type: functional; conditions: read-out: TGI
[6] = system: Mus musculus; assay: Toxicity in mouse P388 cells xenografted mouse at 0.22 mg/kg/day for 10 days; conditions: in vivo, 240 h
[7] = system: P388; assay: Antitumor activity against mouse P388 cells at 25 ug/kg by in vivo 3PS assay; type: functional
[8] = system: P388; assay: Antitumor activity against mouse P388 cells xenografted mouse at 0.025 mg/kg/day for 10 days by 3PS assay; type: functional
[9] = system: L1210; assay: Antitumor activity against mouse L1210 cell xenografted mouse at 200 ug/kg; type: functional
[10] = system: P388; assay: Antitumor activity against mouse P388 cells xenografted mouse at 0.95 mg/kg/day for 10 days by 3PS assay; type: functional
[11] = system: A2780; assay: Antitumor activity against human A2780 cell xenografted athymic mouse at 1000 ug/kg/day; type: functional; conditions: read-out: TGI
[12] = system: L1210; assay: Antitumor activity against mouse L1210 cell xenografted mouse at 15000 ug/kg; type: functional
[13] = system: P388; assay: Antitumor activity against mouse P388 cells at 250 ug/kg by in vivo 3PS assay; type: functional

SMILES: CCCCCCCCCCC(O)C1CCC(C2CCC(C(O)C(=O)CCCCCCCCCCCC3CC(C)OC3=O)O2)O1 (centres undefined) [ROLLINONE]
- T/C [1]: 147%

SMILES: CCCCC[C@@H](O)[C@H](O)CCC[C@@H](O)[C@H]1CC[C@H]([C@H]2CC[C@H]([C@H](O)CCCCCCCCCCCCC3=C[C@H](C)OC3=O)O2)O1
- inhibition in vivo at 0.9 mg/kg [2]: 52.3%
- inhibition in vivo at 0.9 mg/kg [3]: 56.5%

SMILES: CCCCCCCCCC[C@H](O)[C@H]1CC[C@H]([C@H]2CC[C@H]([C@H](O)CCCCCCCCCC[C@@H]3CC(CC(C)=O)C(=O)O3)O2)O1 (some centres undefined) [BULLATACINONE]
- T/C [4]: 144%
- inhibition in vivo at 0.125 mg/kg/day [5]: 52%

SMILES: CCCCCCCCCC[C@@H](O)[C@H]1CC[C@H]([C@H]2CC[C@H]([C@H](O)CCCCCCCCCC[C@@H](O)CC3=C[C@H](C)OC3=O)O2)O1 [ASIMICIN]
- Activity [6]: Toxic

SMILES: CCCCCCCCCCC(O)C1CCC(C2CCC(C(O)CCCCCCCC[C@H](O)CC3=C[C@@H](C)OC3=O)O2)O1 (some centres undefined) [ASIMICIN]
- T/C [7]: 124%
- T/C [8]: 124%
- T/C [9]: 131%

SMILES: CCCCCCCCCCCC[C@@H](O)[C@H]1CC[C@H]([C@H](O)CCCC[C@H](O)CCCCC[C@@H](O)CC2=CC(C)OC2=O)O1 (some centres undefined) [ANNONACIN]
- T/C [10]: 124%

SMILES: CCCCCCCCCC[C@H](O)[C@H]1CC[C@H]([C@H](O)CC[C@H](O)[C@@H]2CC[C@@H](CCCCCCC[C@@H](O)CC3=C[C@H](C)OC3=O)O2)O1 [BULLATALICIN]
- inhibition in vivo at 1 mg/kg/day [11]: 75%

SMILES: CCCCCCCCCC[C@H](OC(C)=O)[C@H]1CC[C@H]([C@H]2CC[C@H]([C@H](O)CCCCCCCCCCCCC3=C[C@H](C)OC3=O)O2)O1 [UVARICIN]
- T/C [1]: 157%

SMILES: CC(=O)O[C@H]1C(=O)[C@@]2(C)[C@H]([C@H](OC(=O)c3ccccc3)[C@]3(O)C[C@H](OC(=O)[C@H](O)[C@@H](NC(=O)c4ccccc4)c4ccccc4)C(C)=C1C3(C)C)[C@]1(OC(C)=O)CO[C@@H]1C[C@@H]2O [PACLITAXEL]
- T/C [12]: 139%

SMILES: CCCCCCCCCCC(O)C1CCC(C2CCC(C(O)CCCCCCCCCCC(O)CC3=CC(C)OC3=O)O2)O1 (centres undefined) [ROLLINIASTATIN]
- T/C [13]: 128%
